Our source for the IC50 values is the Kinase Knowledgebase extract (Sharma et al. 2016).

The target in assay [1] is EGFR (human), P00533 [T790M].
Assay [2] has as its target EGFR (human), P00533 [WT].
In a further assay the target is EGFR (human) (UniProt P00533). Conditions: a431.
Sequence of EGFR (human) (P00533 whole entry, looked up): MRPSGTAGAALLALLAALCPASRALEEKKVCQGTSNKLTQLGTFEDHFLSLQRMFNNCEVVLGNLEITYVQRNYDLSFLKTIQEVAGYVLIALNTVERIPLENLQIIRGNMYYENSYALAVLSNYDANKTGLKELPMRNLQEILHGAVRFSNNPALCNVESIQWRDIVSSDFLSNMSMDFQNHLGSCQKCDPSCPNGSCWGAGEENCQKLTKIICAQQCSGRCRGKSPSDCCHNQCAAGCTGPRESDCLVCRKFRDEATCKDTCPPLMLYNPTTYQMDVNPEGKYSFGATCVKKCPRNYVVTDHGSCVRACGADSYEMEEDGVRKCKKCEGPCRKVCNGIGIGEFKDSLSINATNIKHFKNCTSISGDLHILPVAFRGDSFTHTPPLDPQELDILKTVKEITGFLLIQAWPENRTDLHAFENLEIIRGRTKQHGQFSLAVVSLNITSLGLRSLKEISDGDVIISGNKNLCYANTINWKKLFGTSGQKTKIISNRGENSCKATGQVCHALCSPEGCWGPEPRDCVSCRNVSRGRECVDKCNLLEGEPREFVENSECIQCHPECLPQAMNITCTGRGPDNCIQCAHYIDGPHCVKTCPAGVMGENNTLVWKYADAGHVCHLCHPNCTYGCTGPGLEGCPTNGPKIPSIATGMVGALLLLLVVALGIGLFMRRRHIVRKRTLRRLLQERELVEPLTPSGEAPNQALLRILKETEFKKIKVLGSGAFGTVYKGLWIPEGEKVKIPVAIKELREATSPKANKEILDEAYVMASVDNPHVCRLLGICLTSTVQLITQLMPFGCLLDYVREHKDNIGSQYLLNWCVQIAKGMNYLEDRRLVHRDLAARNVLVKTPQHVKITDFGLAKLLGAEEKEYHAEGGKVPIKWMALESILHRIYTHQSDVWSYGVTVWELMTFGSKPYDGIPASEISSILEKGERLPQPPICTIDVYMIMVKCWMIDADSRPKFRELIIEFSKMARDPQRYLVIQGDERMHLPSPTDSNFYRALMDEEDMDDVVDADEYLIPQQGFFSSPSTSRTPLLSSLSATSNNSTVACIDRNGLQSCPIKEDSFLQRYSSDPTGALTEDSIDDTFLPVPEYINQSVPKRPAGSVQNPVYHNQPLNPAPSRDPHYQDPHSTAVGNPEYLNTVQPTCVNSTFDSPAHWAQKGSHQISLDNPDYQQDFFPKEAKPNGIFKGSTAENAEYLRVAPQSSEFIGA

Sequence of EGFR (human), P00533 [WT] (P00533 whole entry, looked up): as above
Sequence of EGFR (human), P00533 [T790M] (P00533 whole entry T790M, looked up): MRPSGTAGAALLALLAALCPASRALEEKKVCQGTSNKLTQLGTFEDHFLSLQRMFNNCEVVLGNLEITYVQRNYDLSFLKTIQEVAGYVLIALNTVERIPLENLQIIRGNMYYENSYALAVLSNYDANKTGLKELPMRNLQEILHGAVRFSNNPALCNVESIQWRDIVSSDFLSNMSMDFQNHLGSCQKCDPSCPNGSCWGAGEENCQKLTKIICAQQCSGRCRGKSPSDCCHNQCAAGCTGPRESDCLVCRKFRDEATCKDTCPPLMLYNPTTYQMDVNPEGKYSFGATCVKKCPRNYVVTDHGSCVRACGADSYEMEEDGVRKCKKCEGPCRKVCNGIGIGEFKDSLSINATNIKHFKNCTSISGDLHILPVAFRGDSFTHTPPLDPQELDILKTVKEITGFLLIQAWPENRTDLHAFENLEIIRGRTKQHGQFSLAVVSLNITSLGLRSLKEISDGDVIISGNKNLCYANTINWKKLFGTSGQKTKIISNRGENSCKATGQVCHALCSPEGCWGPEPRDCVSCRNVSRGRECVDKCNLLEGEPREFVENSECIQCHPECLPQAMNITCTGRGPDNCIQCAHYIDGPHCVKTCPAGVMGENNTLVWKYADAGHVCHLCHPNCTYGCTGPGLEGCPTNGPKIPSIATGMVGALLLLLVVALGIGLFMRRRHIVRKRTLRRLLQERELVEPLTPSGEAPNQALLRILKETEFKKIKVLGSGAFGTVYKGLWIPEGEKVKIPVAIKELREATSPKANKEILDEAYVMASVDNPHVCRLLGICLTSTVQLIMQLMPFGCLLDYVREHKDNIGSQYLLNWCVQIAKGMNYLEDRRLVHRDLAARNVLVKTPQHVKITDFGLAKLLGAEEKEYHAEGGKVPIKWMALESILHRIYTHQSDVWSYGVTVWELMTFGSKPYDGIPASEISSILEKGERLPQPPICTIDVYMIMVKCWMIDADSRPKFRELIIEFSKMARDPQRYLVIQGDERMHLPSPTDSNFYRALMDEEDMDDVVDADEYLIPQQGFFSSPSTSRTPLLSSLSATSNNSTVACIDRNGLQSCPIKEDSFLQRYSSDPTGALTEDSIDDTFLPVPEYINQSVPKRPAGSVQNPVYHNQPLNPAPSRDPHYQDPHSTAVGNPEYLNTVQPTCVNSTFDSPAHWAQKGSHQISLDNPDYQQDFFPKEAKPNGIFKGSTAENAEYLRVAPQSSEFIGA

`C=CC(=O)NCc1coc(-c2c(NC(C)=O)ncnc2Nc2ccc(Oc3cc(C(F)(F)F)nn3C)c(Cl)c2)n1`: the IC50 (commonly the concentration that inhibits the measured activity by half) in assay [1] amounted to 414 nM; in assay [2] it was 45.4 nM.

Molecule `C=CC(=O)NCC1COC(c2c(N)ncnc2Nc2ccc(OCc3ccccn3)c(Cl)c2)=N1` (centres undefined) displayed a 50% inhibitory concentration (IC50) against EGFR (human) of 130 nM.

Consider `C=CC(=O)NCc1coc(-c2c(NC(C)=O)ncnc2Nc2ccc(OCc3ccccn3)c(Cl)c2)n1`, for which the IC50 on EGFR (human) amounted to 14.2 nM. This IC50 is about 9.2-fold lower than that of the molecule before.

Turning to `CN(C)C/C=C/C(=O)NCc1coc(-c2c(N)ncnc2Nc2ccc(Oc3ccccc3)c(Cl)c2)n1`, the IC50 at EGFR (human) was found to be 78.5 nM.

On to `C=C(CN(C)C)C(=O)NCc1coc(-c2cncnc2Nc2ccc(OCc3ccccn3)c(Cl)c2)n1`, for which the half-maximal inhibitory concentration (IC50) is 3.4 nM in assay [1], 3.5 nM in assay [2] and 313 nM against EGFR (human).

Consider `C=C(CN(C)C)C(=O)NCc1coc(-c2c(N)ncnc2Nc2ccc(Oc3ccc(C)nc3)c(C)c2)n1`, for which, on EGFR (human), the IC50 amounted to 352 nM.

In turn, `C=CC(=O)NCc1coc(-c2c(N)ncnc2Nc2ccc(F)c(Cl)c2)n1` displayed an IC50 in assay [1] of 50.1 nM.

On EGFR (human), `COCCC(=O)NCc1coc(-c2c(N)ncnc2Nc2ccc(Oc3ccccc3F)c(Cl)c2)n1` had a 50% inhibitory concentration (IC50) of 291 nM.

As to `C=CC(=O)NCc1coc(-c2c(N)ncnc2Nc2ccc(F)c(C)c2)n1`, on EGFR (human), the IC50 was determined as 91.2 nM.

In turn, `CN(C)C/C=C/C(=O)NCc1cc(-c2cncnc2Nc2ccc(OCc3cccc(F)c3)c(Cl)c2)on1` gave an IC50 against EGFR (human) of 111 nM.

On to `C=C(CN1CCCC1)C(=O)NCc1cc(-c2cncnc2Nc2ccc(OCc3ccccn3)c(Cl)c2)on1`, for which the concentration for half-maximal inhibition (IC50) on EGFR (human) came to 266 nM.

As to `C=CC(=O)NCc1cc(-c2cncnc2Nc2ccc(OCc3ccccn3)c(Cl)c2)on1`, the IC50 turned out to be 101 nM in assay [1], 9.1 nM in assay [2] and 2 nM at EGFR (human).

Consider `C=C(CN(C)C)C(=O)NCc1coc(-c2c(N)ncnc2Nc2ccc(F)c(Cl)c2)n1`, for which the IC50 is 6.9 nM in assay [1] and 26 nM on EGFR (human).

`C=CC(=O)NCc1coc(-c2c(N)ncnc2Nc2ccc(Sc3nccn3C)c(Cl)c2)n1`: the half-inhibitory concentration (IC50) against EGFR (human) is 424 nM.

With `C=CC(=O)NCc1cc(-c2cncnc2Nc2ccc(Br)c(Cl)c2F)on1`, at EGFR (human), the half-maximal inhibitory concentration (IC50) stood at 65 nM.

Molecule `O=C(/C=C\CO)NCc1cc(-c2cncnc2Nc2ccc(OCc3ccccn3)c(Cl)c2)on1` came in with an IC50 at EGFR (human) of 618 nM.

Regarding `C=C(CN(CC)CC)C(=O)NCc1cc(-c2cncnc2Nc2ccc(OCc3ccccn3)c(Cl)c2)on1`, the concentration for half-maximal inhibition (IC50) at EGFR (human) was determined as 391 nM.

As to `Nc1ncnc(Nc2ccc(Oc3ccccc3F)c(Cl)c2)c1-c1nc(CNC(=O)CO)co1`, the concentration for half-maximal inhibition (IC50) against EGFR (human) turned out to be 159 nM. This IC50 lies about 2.5-fold lower than the previous one.

On EGFR (human), `Nc1ncnc(Nc2ccc(Oc3ccccc3F)c(Cl)c2)c1-c1nc(CNC(=O)CCO)co1` gave an IC50 of 826 nM.

Turning to `CN(C)C/C=C/C(=O)NCc1coc(-c2cncnc2Nc2ccc(OCc3ccccn3)c(Cl)c2)n1`, the IC50 in assay [1] was 156 nM; in assay [2], 4.5 nM; on EGFR (human), 119 nM.

For the molecule `C=CC(=O)NCCc1cc(-c2cncnc2Nc2ccc(OCc3cccc(F)c3)c(Cl)c2)on1`, the IC50 on EGFR (human) was found to be 504 nM.

For the molecule `C=CC(=O)NCc1coc(-c2c(N)ncnc2Nc2ccc(OCc3ccccn3)c(F)c2)n1`, the IC50 is 129 nM in assay [1] and 4.9 nM in assay [2].

For the molecule `C=CC(=O)NCc1coc(-c2cncnc2Nc2ccc(OCc3ccccn3)c(Cl)c2)n1`, the half-maximal inhibitory concentration (IC50) was 13.6 nM in assay [1] and 3.9 nM in assay [2].

In turn, `CN(C)C/C=C/C(=O)NCc1cc(-c2cncnc2Nc2ccc(OCc3ccccn3)c(Cl)c2)on1` came in with a concentration for half-maximal inhibition (IC50) at EGFR (human) of 5 nM.

For `C=C(CN(C)C)C(=O)NCc1cc(-c2cncnc2Nc2ccc(OCc3ccccn3)c(Cl)c2)on1`, the concentration for half-maximal inhibition (IC50) worked out at 12.3 nM in assay [1], 8.8 nM in assay [2] and 1 nM at EGFR (human).

In the case of `C=C(CN(C)C)C(=O)NCc1coc(-c2c(N)ncnc2Nc2ccc(OCc3ccccn3)c(Cl)c2)n1`, the IC50 in assay [1] is 2.5 nM; in assay [2] it was 3.2 nM; on EGFR (human), 190 nM.

With `C=CC(=O)NCc1coc(-c2cncnc2Nc2ccc(F)c(Cl)c2)n1`, the half-maximal inhibitory concentration (IC50) against EGFR (human) came to 437 nM.

With `C=CC(=O)NCc1coc(-c2c(N)ncnc2Nc2ccc(Oc3ccccc3)c(Cl)c2)n1`, the IC50 is 3.3 nM in assay [1] and 7 nM in assay [2].

Turning to `C=CC(=O)N1CCC(c2cc(-c3cncnc3Nc3ccc(OCc4cccc(F)c4)c(Cl)c3)on2)CC1`, on EGFR (human), the IC50 is 3080 nM.

Turning to `C=CC(=O)NCc1coc(-c2c(N)ncnc2Nc2ccc(OCc3cccc(F)c3)c(Cl)c2)n1`, the results for the IC50 in assay [1] and in assay [2] were 19 nM and 27.7 nM, respectively.

For the molecule `C=C(CN1CCN(C)CC1)C(=O)NCc1cc(-c2cncnc2Nc2ccc(OCc3ccccn3)c(Cl)c2)on1`, the half-maximal inhibitory concentration (IC50) on EGFR (human) came out at 309 nM.

`C=CC(=O)NCc1cc(-c2cncnc2Nc2ccc(OCc3cccc(F)c3)c(Cl)c2)on1`: the IC50 in assay [1] was determined as 40.8 nM; in assay [2] it was 10.3 nM; at EGFR (human), 79 nM.

As to `C=CC(=O)NCc1coc(-c2c(N)ncnc2Nc2ccc(OCc3ccccn3)cc2F)n1`, the values for the concentration for half-maximal inhibition (IC50) in assay [1] and in assay [2] were 171 nM and 8.5 nM, respectively.

With `Cc1ccc(Oc2ccc(Nc3ncnc(N)c3-c3nc(CNC(=O)/C=C/CN(C)C)co3)cc2C)cn1`, the IC50 against EGFR (human) is 326 nM.

`C=C(CN1CCOCC1)C(=O)NCc1cc(-c2cncnc2Nc2ccc(OCc3ccccn3)c(Cl)c2)on1`: the IC50 in assay [2] was found to be 21.3 nM; on EGFR (human) it was 182 nM.

In the case of `C=CC(=O)NCc1coc(-c2c(N)ncnc2Nc2ccc(Oc3cc(Cl)ccc3Cl)c(Cl)c2)n1`, the 50% inhibitory concentration (IC50) in assay [1] was determined as 3.2 nM; in assay [2], 3.9 nM.

As to `C=CC(=O)NCc1coc(-c2c(N)ncnc2Nc2ccc(Oc3ccccn3)c(Cl)c2)n1`, the IC50 in assay [1] was determined as 16 nM; in assay [2], 4.2 nM.

Molecule `C=C(CS(C)(=O)=O)C(=O)NCc1cc(-c2cncnc2Nc2ccc(OCc3ccccn3)c(Cl)c2)on1` yielded an IC50 against EGFR (human) of 289 nM.

`C=CC(=O)N1CCCC(c2cc(-c3cncnc3Nc3ccc(OCc4cccc(F)c4)c(Cl)c3)on2)C1` (centres undefined) showed an IC50 against EGFR (human) of 1040 nM. This IC50 lies about 3.6-fold higher than the previous one.

Regarding `C=CC(=O)N(C)Cc1cc(-c2cncnc2Nc2ccc(OCc3cccc(F)c3)c(Cl)c2)on1`, at EGFR (human), the IC50 was 68.7 nM.

As to `C=CC(=O)NCc1coc(-c2c(N)ncnc2Nc2ccc(Oc3ccnn3C)c(Cl)c2)n1`, the IC50 was found to be 125 nM in assay [1], 8.4 nM in assay [2] and 8.4 nM against EGFR (human).

`C=CC(=O)NCc1coc(-c2c(N)ncnc2Nc2ccc(Oc3ccc(C)nc3)c(C)c2)n1`: in assay [1], the IC50 came out at 106 nM.

With `CN(C)C/C=C/C(=O)NCc1coc(-c2c(N)ncnc2Nc2ccc(OCc3ccccn3)c(Cl)c2)n1`, the IC50 in assay [1] worked out at 161 nM; in assay [2] it was 6.1 nM; against EGFR (human), 29 nM.

In turn, `C=CC(=O)NCc1coc(-c2c(N)ncnc2Nc2ccc(Oc3cccnc3)c(Cl)c2)n1` returned an IC50 in assay [1] of 22.1 nM. That is a double-digit nanomolar value.

At EGFR (human), `C=CC(=O)N1CCCC1c1cc(-c2cncnc2Nc2ccc(OCc3cccc(F)c3)c(Cl)c2)on1` (centres undefined) gave a half-inhibitory concentration (IC50) of 131 nM. That is a sub-micromolar value.

For the molecule `CN(C)C/C=C/C(=O)NCc1coc(-c2c(N)ncnc2Nc2ccc(F)c(Cl)c2)n1`, the IC50 at EGFR (human) turned out to be 88 nM.

Molecule `Nc1ncnc(Nc2ccc(OCc3ccccn3)c(Cl)c2)c1-c1nc(CNC(=O)CCO)co1` returned an IC50 against EGFR (human) of 137 nM. Compared with the last molecule, the IC50 is about 1.6-fold higher.

Take `C=C(CN(C)C)C(=O)NCc1coc(-c2cncnc2Nc2ccc(F)c(Cl)c2)n1`: the half-inhibitory concentration (IC50) against EGFR (human) stood at 98.6 nM. The IC50 values of the last two molecules are within 1.5-fold of each other.
